Key:
glycine receptors = molecular target: T1, glycine receptors (Rattus norvegicus, UniProt P07727); test: Glycine receptors in Xenopus oocytes (selectivity); format: cell-based; settings: 20 μM
T1 construct: expressed in transfected cells; host or cells: Xenopus laevis oocytes; cDNA from Dr. D. Weiss
T1 sequence (P07727 29-457): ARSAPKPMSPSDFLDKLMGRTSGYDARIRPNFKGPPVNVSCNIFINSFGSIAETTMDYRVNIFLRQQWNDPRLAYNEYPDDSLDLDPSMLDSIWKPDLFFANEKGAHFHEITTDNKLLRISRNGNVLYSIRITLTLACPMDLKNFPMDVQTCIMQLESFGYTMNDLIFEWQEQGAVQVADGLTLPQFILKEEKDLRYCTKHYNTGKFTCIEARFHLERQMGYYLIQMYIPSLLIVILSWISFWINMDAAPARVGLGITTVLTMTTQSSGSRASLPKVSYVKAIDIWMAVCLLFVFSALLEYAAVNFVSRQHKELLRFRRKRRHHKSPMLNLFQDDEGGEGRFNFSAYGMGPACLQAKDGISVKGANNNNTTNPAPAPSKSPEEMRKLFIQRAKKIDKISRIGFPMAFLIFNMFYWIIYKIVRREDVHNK
Experimental: The numbers of oocytes recorded are in parentheses.
The cDNA was linearized by restriction enzymes (Thermo Fisher Scientific, Lithuania), and the cRNA encoding the receptor subunits was synthesized from the linear template cDNA using the mMESSAGE mMACHINE kit (Invitrogen/Thermo Fisher Scientific, Lithuania). The α1β1δγ nAChR subunits were injected at a 1:1:1:1 ratio while α4 […] nAChR subunits were injected at a 1:1 ratio. The cDNAs encoding GABA and glycine subunits were provided by Dr. D. Weiss (University of Texas Health Science Center at San Antonio). The cDNAs encoding nAChR subunits were provided by Drs. R. Papke (University of Florida) and S. Heinemann (Salk Institute). The cDNA encoding the purinergic receptor was provided by Dr. R. Hume (University of Michigan).
Responses in the presence of EU1180-438 were expressed as a percent of control calculated as the average of the responses before and after EU1180-438 exposure. […]
Defolliculated Xenopus laevis oocytes (stage V-VI) were obtained from Ecocyte BioScience (Austin, Texas), or prepared from commercially available Xenopus ovaries (Xenopus 1, Dexter, MI) as previously described (Hansen, et al., Mol. Pharmacol., 2013). […] Recording electrodes were filled with 0.3-3.0 M KCl, and current responses were recorded at a holding potential of −40 mV.

[1] = system: GluN1/GluN2 NMDA receptors (GluN2A, GluN2B, GluN2C, GluN2D); test: Recombinant GluN1/GluN2 NMDA receptors in Xenopus oocytes (selectivity); format: cell-based, rat

activity at glycine receptors (glycine receptors): virtually no activity | activity toward recombinant GluN1/GluN2 NMDA receptors (GluN2A-D) [1]: no detectable activity | activity at GluN1/GluN2 NMDA receptors ([1]; 20 μM, rat GluN1-1a/GluN2A-D): virtually no activity
Structure (SMILES): COc1ccc(OCC(c2ccc(OC)cc2)N2Cc3ccccc3C2=O)cc1 (racemic) [EU1180-438, 2-(2-(4-methoxyphenoxy)-1-(4-methoxyphenyl)ethyl)isoindolin-1-one]

Source: patent US20230339854A1, “Negative Allosteric Modulation of GluN3-Containing N-Methyl-D-Aspartate Receptors” (Emory University, priority 2020, published 2023)
